Patent US20050267156A1, “Broadspectrum 2-amino-benzothiazole sulfonamide hiv protease inhibitors” (Tibotec Pharmaceuticals Ltd., priority 2002, published 2005)
Counter-ions that a name gives are not always drawn. Like-named read-outs stand apart in the source and are kept apart here.

What was measured:
mutant HIV strain D = assay: microbe, parasite or virus in culture; type: cell-based; settings: for fold resistance Strain D: FR=EC50 (mutant strain)/EC50 (HIV-1 strain LAI); for EC50: Human immunodeficiency virus 1, MT4, read-out: pEC50 Strain D, mutant HIV strain D, MT4 cells (converted)
Procedure: (§1) HIV- or mock-infected MT4 cells were incubated for five days in the presence of various concentrations of the inhibitor. […] Cell viability is measured by measuring the concentration of MTT, a yellow, water soluble tetrazolium dye that is converted to a purple, water insoluble formazan in the mitochondria of living cells only. Upon solubilization of the resulting formazan crystals with isopropanol, the absorbance of the solution is monitored at 540 nm. The values correlate directly to the number of living cells remaining in the culture at the completion of the five-day incubation. The inhibitory activity of the compound was monitored on the virus-infected cells and was expressed as EC50 and EC90. These values represent the amount of the compound required to protect 50% and 90%, respectively, of the cells from the cytopathogenic effect of the virus. […] The selectivity index (SI) (ratio CC50/EC50) is an indication of the selectivity of the anti-HIV activity of the inhibitor. Wherever results are reported as e.g. pEC50 or pCC50 values, the result is expressed as the negative logarithm of the result expressed as EC50 or CC50 respectively.

mutant HIV strain E = assay: microbe, parasite or virus in culture; type: cell-based; settings: for fold resistance Strain E: FR=EC50 (mutant strain)/EC50 (HIV-1 strain LAI); for EC50: Human immunodeficiency virus 1, MT4, read-out: pEC50 Strain E, mutant HIV strain E, MT4 cells (converted)
Procedure: as §1

mutant HIV strain B = assay: microbe, parasite or virus in culture; type: cell-based; settings: for fold resistance Strain B: FR=EC50 (mutant strain)/EC50 (HIV-1 strain LAI); for EC50: Human immunodeficiency virus 1, MT4, read-out: pEC50 Strain B, mutant HIV strain B, MT4 cells (converted)
Procedure: as §1

mutant HIV strain F = assay: microbe, parasite or virus in culture; type: cell-based; settings: for fold resistance Strain F: FR=EC50 (mutant strain)/EC50 (HIV-1 strain LAI); for EC50: Human immunodeficiency virus 1, MT4, read-out: pEC50 Strain F, mutant HIV strain F, MT4 cells (converted)
Procedure: as §1

mutant HIV strain A = assay: microbe, parasite or virus in culture; type: cell-based; settings: for fold resistance Strain A: FR=EC50 (mutant strain)/EC50 (HIV-1 strain LAI); for EC50: Human immunodeficiency virus 1, MT4, read-out: pEC50 Strain A, mutant HIV strain A, MT4 cells (converted)
Procedure: as §1

mutant HIV strain C = assay: microbe, parasite or virus in culture; type: cell-based; settings: for fold resistance Strain C: FR=EC50 (mutant strain)/EC50 (HIV-1 strain LAI); for EC50: Human immunodeficiency virus 1, MT4, read-out: pEC50 Strain C, mutant HIV strain C, MT4 cells (converted)
Procedure: as §1

HIV-1 strain LAI = assay: Cellular anti-HIV assay (MT4/MTT), wild type; type: cell-based; settings: MT4 cells, read-out: WT (pEC50) (converted)
Procedure: as §1, with “The compounds of the present invention were examined for anti-viral activity in a cellular assay. […] The cellular assay was performed according to the following procedure. HIV-” for “HIV-”

Pharmacokinetics in rats = type: in vivo, Whistar rats; settings: Whistar, rat, blood, 10 mpk, read-out: Cmax
Procedure: The pharmacokinetic properties of some compounds of formula (I) were tested on rats and dogs. The compounds were evaluated in Whistar rats, source Iffa Credo, weighing approximately 350 g. Before dosing the animals were fasted overnight (approximately 12 h fasting period). The compounds were dissolved in DMSO or PEG 400. The results represented in the table concern the results from the oral or intra-peritoneal dosing of the compounds. Blood was sampled at 30 min, 1 h, 2 h, 3 h, no pre-dose sample was taken. The amount of the compound in the biological sample was determined using LC-MS. In the table below “or” means oral dosing, “ip” means intraperitoneal dosing, “mpk” means mg per kilogram.

[1] = Toxicity on mock-infected cells (MTT); type: cell-based; settings: human
Procedure: HIV- or mock-infected MT4 cells were incubated for five days in the presence of various concentrations of the inhibitor. At the end of the incubation period, the replicating virus in the control cultures has killed all HIV-infected cells in the absence of any inhibitor. Cell viability is measured by measuring the concentration of MTT, a yellow, water soluble tetrazolium dye that is converted to a purple, water insoluble formazan in the mitochondria of living cells only. Upon solubilization of the resulting formazan crystals with isopropanol, the absorbance of the solution is monitored at 540 nm. The values correlate directly to the number of living cells remaining in the culture at the completion of the five-day incubation. The inhibitory activity of the compound was monitored on the virus-infected cells and was expressed as EC50 and EC90. These values represent the amount of the compound required to protect 50% and 90%, respectively, of the cells from the cytopathogenic effect of the virus. […] The selectivity index (SI) (ratio CC50/EC50) is an indication of the selectivity of the anti-HIV activity of the inhibitor. Wherever results are reported as e.g. pEC50 or pCC50 values, the result is expressed as the negative logarithm of the result expressed as EC50 or CC50 respectively.

[2] = Human immunodeficiency virus 1, wild type HIV-1 strain LAI

| Structure (SMILES) | fold resistance Strain D (mutant HIV strain D) | EC50 (mutant HIV strain D) | fold resistance Strain E (mutant HIV strain E) | EC50 (mutant HIV strain E) | fold resistance Strain B (mutant HIV strain B) | EC50 (mutant HIV strain B) | fold resistance Strain F (mutant HIV strain F) | EC50 (mutant HIV strain F) | fold resistance Strain A (mutant HIV strain A) | EC50 (mutant HIV strain A) | fold resistance Strain C (mutant HIV strain C) | EC50 (mutant HIV strain C) | EC50 (HIV-1 strain LAI; [2]) | Cmax (Pharmacokinetics in rats; ip, ip, DMSO, results normalized to 10 mpk) | Cmax (Pharmacokinetics in rats; po, or, DMSO, results normalized to 10 mpk) | Cmax (Pharmacokinetics in rats; po, or, PEG400, results normalized to 10 mpk) | CC50 at 5 days [1] | EC50 (HIV-1 strain LAI; Human immunodeficiency virus 1, MT4, wild type HIV-1 strain LAI) |
| --- | --- | --- | --- | --- | --- | --- | --- | --- | --- | --- | --- | --- | --- | --- | --- | --- | --- | --- |
| CNc1nc2ccc(S(=O)(=O)N(CC(C)C)C[C@@H](O)[C@H](Cc3ccccc3)NC(=O)OCc3cnco3)cc2s1 [Compound 28, {(1S,2R)-1-benzyl-2-hydroxy-3-[isobutyl-(2-methylamino-benzothiazole-6-sulfonyl)-amino]-propyl}-carbamic acid oxazol-5-ylmethyl ester] | 14.8 | 37.2 nM | 2.8 | 7.08 nM | 2.2 | 5.62 nM | 30.9 | 77.6 nM | 7.8 | 19.5 nM | 2.5 | 6.17 nM | 2.51 nM | 1000 ng/mL | 540 ng/mL | 430 ng/mL | – | – |
| Cc1c(O)cccc1C(=O)N[C@@H](Cc1ccccc1)[C@H](O)CN(CC(C)C)S(=O)(=O)c1ccc2nc(N)sc2c1 [Compound 11, N-{(1S,2R)-3-[(2-amino-benzothiazole-6-sulfonyl)-isobutyl-amino]-1-benzyl-2-hydroxypropyl}-3-hydroxy-2-methyl-benzamide] | 0.6 | 8.32 nM | 0.5 | 7.24 nM | 0.5 | 7.24 nM | 7.1 | 102 nM | 7.8 | 112 nM | 0.5 | 7.59 nM | 14.5 nM | – | – | – | 57500 nM | – |
| Cc1c(F)cccc1C(=O)N[C@@H](Cc1ccccc1)[C@H](O)CN(CC(C)C)S(=O)(=O)c1ccc2nc(N)sc2c1 [Compound 16, N-{(1S,2R)-3-[(2-amino-benzothiazole-6-sulfonyl)-isobutyl-amino]-1-benzyl-2-hydroxypropyl}-3-fluoro-2-methyl-benzamide] | – | > 100000 nM | – | > 100000 nM | – | > 100000 nM | – | > 100000 nM | – | > 100000 nM | – | > 100000 nM | 1410 nM | – | – | – | 11200 nM | – |
| Cc1cc(CN)cc(C)c1OCC(=O)N[C@@H](Cc1ccccc1)[C@H](O)CN(CC(C)C)S(=O)(=O)c1ccc2nc(N)sc2c1 [Compound 17, N-{(1S,2R)-3-[(2-amino-benzothiazole-6-sulfonyl)-isobutyl-amino]-1-benzyl-2-hydroxypropyl}-2-(4-aminomethyl-2,6-dimethyl-phenoxy)-acetamide] | 3.3 | 23.4 nM | 1.1 | 7.59 nM | 0.9 | 6.61 nM | 22.4 | 158 nM | 4.5 | 31.6 nM | 1.7 | 12.3 nM | 7.08 nM | – | – | – | 63100 nM | – |
| CNc1nc2ccc(S(=O)(=O)N(CC(C)C)C[C@@H](O)[C@H](Cc3ccccc3)NC(=O)c3cccc(N)c3C)cc2s1 [Compound 20, 3-amino-N-{(1S,2R)-1-benzyl-2-hydroxy-3-[isobutyl-(2-methylamino-benzothiazole-6-sulfonyl)-amino]-propyl}-2-methyl-benzamide trifluoroacetate] | – | 41.7 nM | – | 25.7 nM | – | 24.5 nM | – | 759 nM | – | 316 nM | – | 39.8 nM | – | – | – | – | > 100000 nM | 4.79 nM |
| CNc1nc2ccc(S(=O)(=O)N(CC(C)C)C[C@@H](O)[C@H](Cc3ccccc3)NC(=O)c3ccc(Br)cc3C)cc2s1 [Compound 27, N-{(1S,2R)-1-benzyl-2-hydroxy-3-[isobutyl-(2-methylamino-benzothiazole-6-sulfonyl)-amino]-propyl}-4-bromo-2-methyl-benzamide] | 4.5 | 85.1 nM | 1.6 | 30.9 nM | 1.1 | 20.4 nM | 33.9 | 646 nM | 8.3 | 158 nM | 263.0 | 5010 nM | 19.1 nM | – | – | – | > 100000 nM | – |
| Cc1cccc(C)c1OCC(=O)N[C@@H](Cc1ccccc1)[C@H](O)CN(CC(C)C)S(=O)(=O)c1ccc2nc(N)sc2c1 [Compound 8, N-{(1S,2R)-3-[(2-amino-benzothiazole-6-sulfonyl)-isobutyl-amino]-1-benzyl-2-hydroxypropyl}-2-(2,6-dimethyl-phenoxy)-acetamide] | 5.1 | 33.9 nM | 4.2 | 27.5 nM | 2.0 | 13.5 nM | 21.4 | 141 nM | 4.8 | 31.6 nM | 3.9 | 25.7 nM | 6.61 nM | – | – | – | > 10000 nM | – |
| Cc1c(N)cccc1C(=O)N[C@@H](Cc1ccccc1)[C@H](O)CN(CC(C)C)S(=O)(=O)c1ccc2nc(N)sc2c1 [Compound 10, 3-amino-N-{(1S,2R)-3-[(2-amino-benzothiazole-6-sulfonyl)-isobutyl-amino]-1-benzyl-2-hydroxypropyl}-2-methyl-benzamide] | 2.5 | 22.9 nM | 1.4 | 13.2 nM | 1.0 | 9.33 nM | 9.5 | 87.1 nM | 9.3 | 85.1 nM | 1.7 | 15.8 nM | 9.12 nM | – | – | – | 72400 nM | – |
